Measurements: patent publication US20210308120A1, “Use of Amitriptyline for Blocking Brain Hemichannels and Method for Potentiating its Effect in Vivo” (THERANEXUS, priority 2015, published 2021)
“Also recorded” adds a separate entry of the source.

Assays:
[1] = molecular target: T1, Cx43 hemichannels (Mus musculus, UniProt P23242); test: Hemichannel activity by ethidium bromide uptake in LPS-treated mouse cortical astrocyte cultures; type: cell-based; details: 24 hours; for HC activity (ethidium bromide uptake) after LPS-induced opening: LPS 1 μg/mL and mefloquine or MFA 10 μM; for Degree of Cx43 hemichannel inhibition, MFA compared with mefloquine: both 10 μM, LPS 1 μg/mL
T1 construct: Astrocyte cultures were prepared from cortex of rats and mice as previously described; endogenous in cells; host or cells: secondary cultures of mouse cortical astrocytes, LPS-treated
Method: Astrocyte cultures were prepared from cortex of rats and mice as previously described (Meme et al., 2006). Cells were seeded on polyornithine coated 35 mm dishes (5×10^5 cells/dish) or into 100-mm diameter plastic dishes at the density of 3×10^6 cells/dish. After 8-10 days, when cells grown into 35 mm in diameter plastic culture dishes have reached confluence, 1 μM of cytosine-arabinoside was added to the culture medium. In addition, when cells grown into 100 mm plastic culture dishes reached confluence, they were harvested with trypsin-EDTA. Then, cells were re-plated (2×10^5 cells per well), as secondary cultures, on glass coverslips placed inside 24-round-well plate. Finally, they were grown to confluence and cytosine-arabinoside was added. Medium was changed twice a week for all cells until the experiments were carried out. Hemichannel activity was evaluated in secondary cultures of cortical astrocytes by Ethidium Bromide (EtBr) uptake as already published (Orellana et al, 2011). 24 h before experiment, cells were pretreated or not with 1 μg/ml LPS known to open Cx43 HeC. The day of experiment, cells were first preincubated in HEPES buffer solution. Then, cells were exposed to 5 μM EtBr for 10 min at room temperature. Cells were then washed with the same buffer before fixation with 4% paraformaldehyde in PBS. Fixed cells were examined at 40× with a confocal laser-scanning microscope. Stacks of 10 consecutive confocal images taken at 0.49 μm intervals were acquired. For each experimental condition, 6 images were captured and then analyzed with Image J program (NIH software). LPS was added to mouse cortical astrocytic cultures during 24 hours to open Cx43 hemichannels and amitriptyline was also added during the same time to evaluate its action on hemichannel activity, quantified by cell uptake of ethidium bromide.

[2] = test system: SN-CCI rats (neuropathic pain, hyperalgesia); test: Randall & Selitto test in SN-CCI rats, chronic 14-day administration; type: in vivo, rat; details: 14 days; for Potentiation of amitriptyline anti-hyperalgesic effect: combined with amitriptyline 12 mg/kg, mefloquine or MFA 0.5 mg/kg i.p. twice a day
Description: Data are the means±S.E.M. of n=8-14 rats.
Data are the means±S.E.M. of n=8-14 rats. *p<0.05, **p<0.01, ***p<0.001 as compared with “saline+saline” group at the same time, ≠p<0.05 as compared between amitriptyline groups, two-way ANOVA, Bonferroni test.
(§1) One week after their arrival, rats were anesthetized with sodium pentobarbital before exposing the common sciatic nerve. As described in Bennett's article, four chromic catgut (5-0) ligations were tied loosely proximally to the sciatic trifurcation (Bennett and Xie, 1988).
(§2) All behavioral assessments were conducted between 9 a.m. and 5 p.m. in a quiet room. An increasing pressure was applied to the right hind paw of SN-CCI (Sciatic Nerve-Chronic Constriction Injury) rat to evaluate hyperalgesia-like behavior (Viguier and al, 2013). Values correspond to the pressure threshold producing the paw withdrawal and then the vocalization of the rat.
Osmotic mini-pumps (Alzet, model 2ML2), delivering for the following 14 days amitriptyline or vehicle were subcutaneously implanted.
a) Rats were ligated on sciatic nerve and then tested with the Randall & Selitto test 14 days after surgery, to evaluate hyperalgesia quantified as pressure threshold. Neuropathic rats, characterized by a decrease of pressure threshold after surgery, were then treated during 14 days and tested by the Randall & Selitto test during this period.

[3] = test system: SN-CCI rats (neuropathic pain, hyperalgesia); test: Randall & Selitto test in SN-CCI rats, repeated administration every 150 minutes; type: in vivo, rat; details: mefloquine 1 mg/kg with amitriptyline i.p. every 150 min; at 90 and 240 min
Method: as §1, §2

[4] = test system: mice subjected to FST; test: Forced Swim Test (FST); type: in vivo, mouse; details: amitriptyline 12 mg/kg + mefloquine 1 mg/kg per os; 2nd 3-min period
Method: The FST is the most used rodent model for screening antidepressants (Porsolt et al, 1977). Mice were dropped individually in a glass cylinder (25 cm high, 9 cm diameter) filled with 10 cm 25° C. water. The experiment was recorded with a camcorder, placed in front of the glass cylinders. Video were scored at a later time by an experimenter blind to the treatments. The indices of depression-related behavior are the immobility time, the swimming time and the climbing time.
FST test evaluates the despair behavior which is commonly reversed by antidepressants. During FST, the swimming time of each mouse was measured on each 1-min period, on 1st and 2nd 3-min periods.

[5] = test system: neuropathic mice (cuff model, allodynia); test: Mechanical allodynia, von Frey test in sciatic nerve cuff model; type: in vivo, mouse; details: for Synergy with amitriptyline in vivo: combined with amitriptyline (FIGS. 7 and 11), 0.5 mg/kg
Method: Paw withdrawal thresholds of mice treated with either amitriptyline 6 mg/kg alone (AMIT 6) or amitriptyline 12 mg/kg alone (AMIT 12) are also shown (D). FIG. 10 (E) represents area under curve analysis.
Area under curve analysis are shown (B).
Neuropathic pain was induced to adult male C57BL/6J mice (Charles River, L'Arbresle, France) by cuffing the main branch of the right sciatic nerve (For detailed description and video illustration: Yalcin et al. 2014, J Vis Exp 89:e51608). Surgeries were performed under ketamine (68 mg/kg)/xylazine (10 mg/kg) intraperitoneal (i.p.) anesthesia (Centravet, Tadden, France). The common branch of the right sciatic nerve was exposed and a cuff of PE-20 polyethylene tubing (Harvard Apparatus, Les Ulis, France) of standardized length (2 mm) was unilaterally inserted around it (Cuff group). The shaved skin was closed using suture.
Injections were done once a day during the 17 first days of treatment, in the afternoon. As a single dose per day was ineffective, treatment was then done twice a day, morning and afternoon, from the 8 last days of treatment.
Mechanical allodynia was tested using von Frey hairs and results were expressed in grams (For detailed description and video illustration: Yalcin et al. 2014, J Vis Exp 89:e51608). Tests were done during the morning, starting at least 2 hours after lights on. Mice were placed in clear Plexiglas boxes (7 cm×9 cm×7 cm) on an elevated mesh screen. Calibrated von Frey filaments (Bioseb, Vitrolles, France) were applied to the plantar surface of each hindpaw until they just bent, in a series of ascending forces up to the mechanical threshold. Filaments were tested five times per paw and the paw withdrawal threshold was defined as the lower of two consecutive filaments for which three or more withdrawals out of the five trials were observed.
Mice were subjected to sciatic nerve cuffing and then tested with the von Frey test to evaluate allodynia quantified as pressure threshold.
Mice were subjected to sciatic nerve cuffing and then tested with the von Frey test to evaluate allodynia quantified as pressure threshold. Neuropathic mice, characterized by a decrease of pressure threshold after surgery, were then treated during 25 days and tested by the von Frey test during this period.

[6] = Pharmacokinetics of amitriptyline/mefloquine in plasma and brain of mice (LC-MS); type: in vivo, mouse
Method: Data are presented as mean±SEM.
Adult male C57BL/6J mice (Charles River, L'Arbresle, France) were used. Mice were kept in collective cages for habituation to the facility for one week before experimental testing with food and water ad libitum. Mice were maintained on a light/dark cycle of 12 hours with light onset at 8h00 and with a controlled temperature of 21° C.±1° C.
Injections were done twice.
On day 18th of treatment, mice received the morning injection and samplings were done 2 hours after the injection. Mice were anesthetized just before sampling (ketamine 68 mg/kg, xylazine 10 mg/kg) and blood was collected by intracardiac puncture (Vacuette tubes, with lithium/heparin gel). The mouse was then decapitated, and the brain extracted and fast frozen in dry ice.
Vacuette tubes with blood were centrifugated (3000 rpm, 20 min), plasma recovered and stored at −80° C. until shipping in dry ice.

[7] = cited from earlier work
[8] = amitriptyline 12 mg/kg s.c. osmotic pump, mefloquine 0.5 mg/kg i.p. twice a day, vs saline

T1 sequence (P23242 whole entry): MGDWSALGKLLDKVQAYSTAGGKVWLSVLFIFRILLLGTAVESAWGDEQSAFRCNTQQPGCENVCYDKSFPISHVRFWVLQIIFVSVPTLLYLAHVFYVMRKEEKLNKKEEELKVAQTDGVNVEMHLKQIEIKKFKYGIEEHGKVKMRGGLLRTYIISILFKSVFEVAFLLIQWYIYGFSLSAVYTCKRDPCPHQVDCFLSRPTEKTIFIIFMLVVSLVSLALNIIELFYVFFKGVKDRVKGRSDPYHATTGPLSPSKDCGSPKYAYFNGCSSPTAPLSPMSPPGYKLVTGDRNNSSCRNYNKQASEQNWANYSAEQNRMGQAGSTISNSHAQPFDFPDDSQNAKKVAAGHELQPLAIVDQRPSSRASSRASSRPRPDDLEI

## O[C@H](c1cc(C(F)(F)F)nc2c(C(F)(F)F)cccc12)[C@@H]1CCCCN1 (relative stereo) [mefloquine, (R*, S*)-(±)-α-2-piperidinyl-2,8-bis (trifluoromethyl)-4-quinolinemethanol]
[1]
  HC activity (ethidium bromide uptake) after LPS-induced opening: reversed this effect
  Degree of Cx43 hemichannel inhibition, MFA compared with mefloquine: less efficient
[2]; [8]
  Paw withdrawal threshold (pressure): did not present significant effect on both responses
  Vocalization threshold (pressure): did not present significant effect on both responses
[2]
  Potentiation of amitriptyline anti-hyperalgesic effect: significantly potentiated amitriptyline hyperalgesic profile from day 6 to day 14; also recorded: significantly potentiated amitriptyline hyperalgesic at day 14
[3]
  Potentiation of amitriptyline anti-hyperalgesic effect: significantly improved the anti-hyperalgesic effect of amitriptyline
[4]
  Swimming time: able to potentiate amitriptyline 12 mg/kg
[5]; mefloquine 0.1, 0.33, 1 mg/kg i.p. with amitriptyline 6 mg/kg, 25 days
  Potentiation of amitriptyline antiallodynic effect: significantly potentiated amitriptyline 6 mg/kg
[5]; mefloquine 0.1 and 0.33 mg/kg with amitriptyline 6 mg/kg
  Antiallodynic effect of combination: antiallodynic effect similar to amitriptyline 12 mg/kg
[6]; amitriptyline 6, 12 mg/kg, mefloquine 0.1, 0.3, 1 mg/kg i.p., 18 days, 2 hours after injection
  Concentrations in blood and brain tissue: dose-dependent
[6]; even for the highest doses of mefloquine
  Effect on concentrations of amitriptyline in blood and brain: does not induce an increase
[6]; mice, FIG. 12
  Mefloquine concentrations in plasma and brain at optimal in vivo potentiation: micromolar scale

## O=C(O)c1cc(C(F)(F)F)nc2c(C(F)(F)F)cccc12 [2,8-bistrifluoromethyl-4-quinoline carboxylic acid]
[7]; in vivo
  Time to maximum plasma concentrations: 2 weeks
[7]; relative to mefloquine
  Maximum plasma concentrations, higher than those of mefloquine: about 50%

## Cc1ccc(Cl)c(Nc2ccccc2C(=O)O)c1Cl [MFA, meclofenamic acid]
[1]
  HC activity (ethidium bromide uptake) after LPS-induced opening: reversed this effect
  Degree of Cx43 hemichannel inhibition, MFA compared with mefloquine: presented a higher inhibitor effect
[2]
  Potentiation of amitriptyline anti-hyperalgesic effect: did not present any improved effect of amitriptyline
[5]
  Synergy with amitriptyline in vivo: not observed

## O=C(O)c1cccnc1Nc1cccc(C(F)(F)F)c1 [niflumic acid]
[5]
  Synergy with amitriptyline in vivo: not observed

## hydroxymefloquine
[7]; in vivo
  Presence as metabolite: minute quantities only
